Results taken from the NIST ThermoML archive (doi:10.1016/j.fluid.2018.09.026).
Several values for one entry are separate records, joined by “and”; a condition that tells them apart may be missing. Equal values may be shown once.

Conditions: Liquid; for mass density: Vibrating tube method; for viscosity: Vibrating wire viscometry

OCCOCCOCCO [triethylene glycol]
Conditions	mass density	viscosity
333.15 K, 2100 kPa	1092.7 kg/m3	–
333.15 K, 3070 kPa	1093.2 kg/m3	–
333.15 K, 5060 kPa	1094.2 kg/m3	–
333.15 K, 6980 kPa	1095.2 kg/m3	–
333.15 K, 9970 kPa	1096.6 kg/m3	–
333.15 K, 14840 kPa	1099 kg/m3	–
333.15 K, 19660 kPa	1101.3 kg/m3	–
333.15 K, 24670 kPa	1103.7 kg/m3	–
333.15 K, 29610 kPa	1106 kg/m3	–
333.15 K, 34530 kPa	1108.2 kg/m3	–
333.15 K, 39400 kPa	1110.3 kg/m3	–
333.15 K, 44280 kPa	1112.5 kg/m3	–
333.15 K, 49110 kPa	1114.5 kg/m3	–
333.15 K, 54040 kPa	1116.5 kg/m3	–
333.15 K, 59060 kPa	1118.6 kg/m3	–
333.15 K, 63830 kPa	1120.5 kg/m3	–
333.15 K, 68770 kPa	1122.4 kg/m3	–
333.21 K, 150 kPa	–	9.306 mPa·s [middle of 4 runs]
333.21 K, 170 kPa	–	9.339 mPa·s [middle of 7 runs]
333.21 K, 750 kPa	–	9.338 mPa·s
333.21 K, 760 kPa	–	9.422 mPa·s and 9.347 mPa·s
333.21 K, 790 kPa	–	9.383 mPa·s
333.21 K, 1460 kPa	–	9.386 mPa·s [middle of 4 runs]
333.21 K, 1470 kPa	–	9.379 mPa·s and 9.375 mPa·s and 9.363 mPa·s
333.21 K, 4930 kPa	–	9.61 mPa·s
333.21 K, 4940 kPa	–	9.609 mPa·s and 9.653 mPa·s
333.21 K, 4950 kPa	–	9.655 mPa·s [middle of 4 runs]
333.21 K, 4970 kPa	–	9.688 mPa·s and 9.672 mPa·s
333.21 K, 4980 kPa	–	9.595 mPa·s and 9.684 mPa·s
333.21 K, 4990 kPa	–	9.704 mPa·s
333.21 K, 5030 kPa	–	9.613 mPa·s
333.21 K, 9610 kPa	–	10.02 mPa·s
333.21 K, 9620 kPa	–	9.96 mPa·s and 9.899 mPa·s
333.21 K, 9680 kPa	–	9.927 mPa·s
333.21 K, 9690 kPa	–	9.942 mPa·s and 9.978 mPa·s
333.21 K, 9700 kPa	–	9.918 mPa·s
333.21 K, 9720 kPa	–	9.986 mPa·s
333.21 K, 20900 kPa	–	10.78 mPa·s
333.21 K, 20930 kPa	–	10.79 mPa·s
333.21 K, 20940 kPa	–	10.78 mPa·s and 10.79 mPa·s
333.21 K, 29220 kPa	–	11.36 mPa·s
333.21 K, 29260 kPa	–	11.37 mPa·s
333.21 K, 29290 kPa	–	11.28 mPa·s
333.21 K, 29370 kPa	–	11.48 mPa·s
333.21 K, 29400 kPa	–	11.32 mPa·s
333.21 K, 29410 kPa	–	11.32 mPa·s
333.21 K, 29450 kPa	–	11.36 mPa·s
333.21 K, 29460 kPa	–	11.34 mPa·s
333.21 K, 29490 kPa	–	11.36 mPa·s
333.21 K, 29520 kPa	–	11.49 mPa·s
333.21 K, 29730 kPa	–	11.35 mPa·s
333.21 K, 29740 kPa	–	11.35 mPa·s
333.21 K, 29760 kPa	–	11.47 mPa·s
333.21 K, 29770 kPa	–	11.42 mPa·s
333.21 K, 37210 kPa	–	11.94 mPa·s
333.21 K, 37260 kPa	–	12.04 mPa·s
333.21 K, 37430 kPa	–	11.99 mPa·s
333.21 K, 37490 kPa	–	12.07 mPa·s
333.21 K, 38020 kPa	–	12.13 mPa·s
333.21 K, 38150 kPa	–	12.06 mPa·s
333.21 K, 38270 kPa	–	12.05 mPa·s
333.21 K, 47910 kPa	–	12.77 mPa·s
333.21 K, 48010 kPa	–	12.75 mPa·s
333.21 K, 48280 kPa	–	12.76 mPa·s
333.21 K, 49590 kPa	–	12.91 mPa·s
333.21 K, 49640 kPa	–	13.01 mPa·s
333.21 K, 49670 kPa	–	12.99 mPa·s
333.21 K, 49700 kPa	–	12.96 mPa·s
333.21 K, 49730 kPa	–	12.91 mPa·s
333.21 K, 68790 kPa	–	14.61 mPa·s
333.21 K, 69130 kPa	–	14.52 mPa·s
333.21 K, 69650 kPa	–	14.74 mPa·s
343.08 K, 200 kPa	–	6.978 mPa·s and 6.969 mPa·s and 6.931 mPa·s
343.08 K, 1160 kPa	–	6.971 mPa·s [middle of 4 runs]
343.08 K, 4890 kPa	–	7.185 mPa·s
343.08 K, 4900 kPa	–	7.179 mPa·s and 7.239 mPa·s and 7.214 mPa·s
343.08 K, 9750 kPa	–	7.392 mPa·s
343.08 K, 9760 kPa	–	7.403 mPa·s
343.08 K, 9770 kPa	–	7.403 mPa·s
343.08 K, 20580 kPa	–	8.071 mPa·s and 7.965 mPa·s
343.08 K, 20590 kPa	–	8.036 mPa·s and 7.937 mPa·s
343.08 K, 20600 kPa	–	8.08 mPa·s
343.08 K, 30330 kPa	–	8.459 mPa·s
343.08 K, 30350 kPa	–	8.469 mPa·s and 8.515 mPa·s and 8.474 mPa·s
343.08 K, 30390 kPa	–	8.519 mPa·s
343.08 K, 39560 kPa	–	8.994 mPa·s
343.08 K, 39590 kPa	–	9.055 mPa·s
343.08 K, 39640 kPa	–	9.065 mPa·s
343.08 K, 50360 kPa	–	9.671 mPa·s
343.08 K, 50420 kPa	–	9.687 mPa·s
343.08 K, 50470 kPa	–	9.572 mPa·s
343.08 K, 50570 kPa	–	9.608 mPa·s
343.08 K, 67230 kPa	–	10.62 mPa·s
343.08 K, 67540 kPa	–	10.64 mPa·s
343.08 K, 67870 kPa	–	10.63 mPa·s
343.15 K, 100 kPa	1083.9 kg/m3	–
343.15 K, 640 kPa	1084.2 kg/m3	–
343.15 K, 1120 kPa	1084.4 kg/m3	–
343.15 K, 1600 kPa	1084.7 kg/m3	–
343.15 K, 2110 kPa	1084.9 kg/m3	–
343.15 K, 3040 kPa	1085.5 kg/m3	–
343.15 K, 5040 kPa	1086.6 kg/m3	–
343.15 K, 6960 kPa	1087.5 kg/m3	–
343.15 K, 9920 kPa	1089 kg/m3	–
343.15 K, 14810 kPa	1091.6 kg/m3	–
343.15 K, 19680 kPa	1093.9 kg/m3	–
343.15 K, 24620 kPa	1096.4 kg/m3	–
343.15 K, 29580 kPa	1098.7 kg/m3	–
343.15 K, 34460 kPa	1101 kg/m3	–
343.15 K, 39370 kPa	1103.3 kg/m3	–
343.15 K, 44240 kPa	1105.4 kg/m3	–
343.15 K, 49160 kPa	1107.6 kg/m3	–
343.15 K, 54020 kPa	1109.7 kg/m3	–
343.15 K, 58940 kPa	1111.7 kg/m3	–
343.15 K, 63890 kPa	1113.8 kg/m3	–
343.15 K, 68680 kPa	1115.7 kg/m3	–
353.15 K, 100 kPa	1076 kg/m3	–
353.15 K, 650 kPa	1076.3 kg/m3	–
353.15 K, 1100 kPa	1076.5 kg/m3	–
353.15 K, 1550 kPa	1076.7 kg/m3	–
353.15 K, 2100 kPa	1077.1 kg/m3	–
353.15 K, 3050 kPa	1077.6 kg/m3	–
353.15 K, 5040 kPa	1078.6 kg/m3	–
353.15 K, 7010 kPa	1079.8 kg/m3	–
353.15 K, 9960 kPa	1081.3 kg/m3	–
353.15 K, 14810 kPa	1084 kg/m3	–
353.15 K, 19780 kPa	1086.5 kg/m3	–
353.15 K, 24610 kPa	1089 kg/m3	–
353.15 K, 29560 kPa	1091.9 kg/m3	–
353.15 K, 34450 kPa	1093.8 kg/m3	–
353.15 K, 39370 kPa	1096.1 kg/m3	–
353.15 K, 44270 kPa	1098.4 kg/m3	–
353.15 K, 49200 kPa	1100.6 kg/m3	–
353.15 K, 54090 kPa	1102.8 kg/m3	–
353.15 K, 59010 kPa	1104.9 kg/m3	–
353.15 K, 63820 kPa	1107 kg/m3	–
353.15 K, 68800 kPa	1109 kg/m3	–
362.88 K, 190 kPa	–	4.247 mPa·s [middle of 7 runs]
362.88 K, 1270 kPa	–	4.27 mPa·s [middle of 8 runs]
362.88 K, 1990 kPa	–	4.308 mPa·s and 4.283 mPa·s and 4.311 mPa·s
362.88 K, 2000 kPa	–	4.292 mPa·s [middle of 5 runs]
362.88 K, 4990 kPa	–	4.388 mPa·s [middle of 4 runs]
362.88 K, 5000 kPa	–	4.396 mPa·s and 4.394 mPa·s and 4.386 mPa·s
362.88 K, 10010 kPa	–	4.54 mPa·s and 4.522 mPa·s and 4.512 mPa·s
362.88 K, 10020 kPa	–	4.524 mPa·s [middle of 4 runs]
362.88 K, 19820 kPa	–	4.812 mPa·s
362.88 K, 19830 kPa	–	4.792 mPa·s and 4.786 mPa·s and 4.794 mPa·s
362.88 K, 19840 kPa	–	4.789 mPa·s
362.88 K, 29760 kPa	–	5.092 mPa·s
362.88 K, 29770 kPa	–	5.089 mPa·s
362.88 K, 29780 kPa	–	5.088 mPa·s
362.88 K, 29790 kPa	–	5.109 mPa·s
362.88 K, 39030 kPa	–	5.381 mPa·s
362.88 K, 39050 kPa	–	5.39 mPa·s
362.88 K, 39060 kPa	–	5.382 mPa·s
362.88 K, 39070 kPa	–	5.395 mPa·s
362.88 K, 39330 kPa	–	5.395 mPa·s
362.88 K, 50130 kPa	–	5.747 mPa·s
362.88 K, 50260 kPa	–	5.754 mPa·s
362.88 K, 50300 kPa	–	5.756 mPa·s
362.88 K, 50380 kPa	–	5.739 mPa·s
362.88 K, 50430 kPa	–	5.763 mPa·s
362.88 K, 67370 kPa	–	6.356 mPa·s
362.88 K, 67660 kPa	–	6.331 mPa·s
362.88 K, 67980 kPa	–	6.382 mPa·s
363.15 K, 100 kPa	1068.1 kg/m3 and 1068 kg/m3	–
363.15 K, 660 kPa	1068.4 kg/m3	–
363.15 K, 1120 kPa	1068.7 kg/m3	–
363.15 K, 1560 kPa	1068.9 kg/m3	–
363.15 K, 2130 kPa	1069.2 kg/m3	–
363.15 K, 3050 kPa	1069.8 kg/m3	–
363.15 K, 5090 kPa	1070.9 kg/m3	–
363.15 K, 6990 kPa	1072 kg/m3	–
363.15 K, 9980 kPa	1073.7 kg/m3	–
363.15 K, 14880 kPa	1076.4 kg/m3	–
363.15 K, 19680 kPa	1079 kg/m3	–
363.15 K, 24720 kPa	1081.7 kg/m3	–
363.15 K, 29630 kPa	1084.2 kg/m3	–
363.15 K, 34490 kPa	1086.6 kg/m3	–
363.15 K, 39430 kPa	1089 kg/m3	–
363.15 K, 44200 kPa	1091.4 kg/m3	–
363.15 K, 49240 kPa	1093.7 kg/m3	–
363.15 K, 54100 kPa	1095.9 kg/m3	–
363.15 K, 59010 kPa	1098.1 kg/m3	–
363.15 K, 63880 kPa	1100.2 kg/m3	–
363.15 K, 68830 kPa	1102.3 kg/m3	–
